Drawing on ChEMBL document CHEMBL5620416, “Design, synthesis and development of a dual inhibitor of Topoisomerase 1 and poly (ADP-ribose) polymerase 1 for efficient killing of cancer cells” (Eur J Med Chem, 2023), this text covers IC50 and Activity for 15 molecules.

Calls of active or inactive are those of the source. The rule behind the calls is not given here.

Test [1] concerns HCT-116. As to the kind of experiment: Cytotoxicity against human HCT-116 cells incubated for 72 hrs by MTT assay. In kind it is functional, cell-based. Particulars: HCT-116, 72 h.
Test [2] concerns MIA PaCa-2. As to the kind of experiment: Cytotoxicity against human MIA PaCa-2 cells incubated for 72 hrs by MTT assay. In kind it is functional, cell-based. The following applies: MIA PaCa-2, 72 h.
For test [3], the system named is PANC-1. As to the kind of experiment: Cytotoxicity against human PANC-1 cells incubated for 72 hrs by MTT assay. Particulars: PANC-1, 72 h. The test is classed as functional, cell-based.
Test [4] relates to HCT-116. As to the kind of experiment: Cytotoxicity against human HCT-116 cells at greater than 10 uM incubated for 7 to 10 days by crystal violet staining based assay. In kind it is functional, cell-based. The following applies: time 7-10 day.
For test [5], the system named is MIA PaCa-2. As to the kind of experiment: Cytotoxicity against human MIA PaCa-2 cells at greater than 10 uM incubated for 7 to 10 days by crystal violet staining based assay. Particulars: time 7-10 day. In kind it is functional, cell-based.
Test [6] concerns PANC-1. The test can be described thus: Cytotoxicity against human PANC-1 cells at greater than 10 uM incubated for 7 to 10 days by crystal violet staining based assay. Particulars: time 7-10 day. In kind it is functional, cell-based.
In test [7] the test system is Calf thymus DNA. The test can be described thus: Binding affinity to calf thymus pUC19 DNA assessed as intercalating activity by measuring conformational change in DNA at 50 to 100 uM incubated for 30 mins by EtBr staining based agarose gel electrophoresis. Particulars: Bos taurus, dose 50-100 µM. In kind it is nucleic-acid assay.
The test system of test [8] is HCT-116. As to the kind of experiment: Cytotoxicity against human HCT-116 cells at less than 10 uM incubated for 7 to 10 days by crystal violet staining based assay. In kind it is functional, cell-based. Particulars: time 7-10 day.
Test [9] concerns MIA PaCa-2. The test can be described thus: Cytotoxicity against human MIA PaCa-2 cells at less than 10 uM incubated for 7 to 10 days by crystal violet staining based assay. The test is classed as functional, cell-based. The following applies: time 7-10 day.
Test [10] has as its system PANC-1. The test can be described thus: Cytotoxicity against human PANC-1 cells at less than 10 uM incubated for 7 to 10 days by crystal violet staining based assay. The test is classed as functional, cell-based. The following applies: time 7-10 day.
In test [11] the test system is HCT-116. The test can be described thus: Induction of PARylation in human HCT-116 cells at 20 uM incubated for 2 to 8 hrs by Western blotting analysis. Particulars: time 2-8 hrs. In kind it is functional, cell-based.
Test [12] has as its system HCT-116. As to the kind of experiment: Induction of TOP1-DNA covalent complex PARlyation in human HCT-116 cells at 1 uM measured upto 24 hrs by RADAR assay. In kind it is functional, cell-based.
Test [13] relates to DNA topoisomerase 1/Deoxyribonucleic acid (Homo sapiens). As to the kind of experiment: Induction of TOP1-DNA covalent complex stabilization in human HCT-116 cells at 10 to 20 uM after 4 to 6 hrs by RADAR assay. The test is classed as cell-based. Particulars: dose 10-20 µM, time 4-6 hrs.
The test system is the same in test [14]. The test can be described thus: Induction of TOP1-DNA covalent complex stabilization in human HCT-116 cells at 10 to 20 uM after 2 hrs by RADAR assay. In kind it is cell-based. The following applies: dose 10-20 µM.
The test system is the same in test [15]. The test can be described thus: Induction of TOP1-DNA covalent complex degradation in human HCT-116 cells at 1 uM by RADAR assay. In kind it is cell-based. Particulars: time 2-24 hrs, TDE = time-dependent effect.

As for `COc1ccc(Cc2nn(CCCc3nnc(SCCN4C(=O)c5cccc6cccc(c56)C4=O)o3)c(=O)c3ccccc23)cc1`, the IC50 in test [1], in test [2] and in test [3] was over 25 µM each time. Also, the outcome in test [4], in [5] and in test [6] was Active.
On to `O=C1c2cccc3cccc(c23)C(=O)N1CCSc1nnc(CCCn2nc(Cc3ccccc3)c3ccccc3c2=O)o1`, for which the IC50 in test [1], in test [2] and in test [3] was over 25 µM in each case. The outcome in test [4], in test [5] and in [6] was Active.
For the molecule `COc1cccc2c1C(=O)c1c(O)c3c(c(O)c1C2=O)C[C@@](O)(C(=O)CO)C[C@@H]3O[C@H]1C[C@H](N)[C@H](O)[C@H](C)O1`, in test [7], the result was Active.
For the molecule `O=C1NC(=O)c2cccc3cccc1c23`, the IC50 in test [1] stood at 15 µM; in test [2], 18 µM; in test [3] it was 20 µM.
On to `O=C1c2cccc3cccc(c23)C(=O)N1CCCc1nnc(CCn2nc(Cc3ccc(F)cc3)c3ccccc3c2=O)o1`, for which the IC50 in test [1], in test [2] and in [3] was over 25 µM in each case. Besides, the result in test [4], in test [5] and in test [6] was Active.
Consider `O=C1c2cccc3cccc(c23)C(=O)N1CCCc1nnc(Cn2nc(Cc3ccc(F)cc3)c3ccccc3c2=O)o1`, for which the IC50 in [1], in test [2] and in test [3] was over 25 µM throughout. Further, the result in [4], in test [5] and in test [6] was Active.
For `COc1ccc(Cc2nn(Cc3nnc(SCCN4C(=O)c5cccc6cccc(c56)C4=O)o3)c(=O)c3ccccc23)cc1`, the IC50 turned out to be 13.5 µM in [1], 14 µM in test [2] and 13 µM in test [3]. Besides, the result in [8], in test [9] and in [10] was Active.
As to `O=C(c1cc(Cc2n[nH]c(=O)c3ccccc23)ccc1F)N1CCN(C(=O)C2CC2)CC1` [OLAPARIB], the IC50 was found to be 9 µM in test [1], 8 µM in test [2] and 7 µM in test [3]. In addition, in test [11], the result was inactive.
As to `COc1ccc(Cc2nn(CCc3nnc(SCCN4C(=O)c5cccc6cccc(c56)C4=O)o3)c(=O)c3ccccc23)cc1`, the IC50 in test [1], in [2] and in test [3] was over 25 µM throughout. For the same molecule, the result in test [4], in test [5] and in [6] was Active.
Regarding `CC[C@@]1(O)C(=O)OCc2c1cc1n(c2=O)Cc2cc3ccccc3nc2-1`, the outcome in [12] and in test [14] was Active. The result in test [13] was inactive. Moreover, the Activity entry in test [15] is “Tde”.
For `O=C1c2cccc3cccc(c23)C(=O)N1CCSc1nnc(CCn2nc(Cc3ccc(F)cc3)c3ccccc3c2=O)o1`, the IC50 in test [1] came out at 12.5 µM; in test [2], 11 µM; in [3], 13 µM. For the same molecule, the outcome in test [8], in [9] and in test [10] was Active.
As to `O=C1c2cccc3cccc(c23)C(=O)N1CCSc1nnc(CCn2nc(Cc3ccccc3)c3ccccc3c2=O)o1`, the IC50 in test [1], in test [2] and in [3] was over 25 µM throughout.
`O=C1c2cccc3cccc(c23)C(=O)N1CCSc1nnc(Cn2nc(Cc3ccccc3)c3ccccc3c2=O)o1`: the IC50 in [1], in test [2] and in test [3] was over 25 µM throughout. For the same molecule, the outcome in test [4], in test [5] and in [6] was Active.
Turning to `O=C1c2cccc3cccc(c23)C(=O)N1CCSc1nnc(CCCn2nc(Cc3ccc(F)cc3)c3ccccc3c2=O)o1`, the IC50 in test [1], in test [2] and in [3] was over 25 µM throughout. Further, the outcome in test [4], in test [5] and in test [6] was Active.
With `CN(C)c1ccc2cc3ccc(N(C)C)cc3nc2c1`, the outcome in [7] was Active.
